Measurements as given in US20090220534A1, “METHODS FOR IDENTIFYING T-CELL EPITOPES ASSOCIATED WITH IMPAIRED PEPTIDE PROCESSING AND APPLICATIONS OF THE IDENTIFIED EPITOPES” (Leiden University Medical Center, priority 2006, published 2009).

Tests used:
[1] = test system: MC38 colon carcinoma cells and B16 melanoma cells; assay: TAP1 antisense oligonucleotide treatment of tumor cells, recognition by TEIPP-specific CTL (IFNγ release); format: cell-based, mouse
Description: (§1) (a) TEIPP-specific CTL were incubated with a panel of TAP-expressing syngeneic tumor cells (see Materials and Methods for descriptions of tumor cell lines). CTL response against TAP-deficient RMA-S in this experiment was 44 ng/ml. (b) Pre-treatment of TAP-expressing T-cell lymphoma (RMA) and B-cell lymphoma (786) cells with IFNγ reduced the reactivity of TEIPP-specific CTL, as measured after 6 h. […] Panels depict means of triplicate wells and one of three experiments is shown. (c-e) TAP-expressing RMA tumor cells were treated with the proteasome inhibitor lactacystin and used as targets for cytolysis by two independent TEIPP-specific CTL (c and d) or control RMA-specific CTL (e). […] One representative experiment of three is shown. […] (f-g) TAP-expressing colon carcinoma MC38 (f) and melanoma B16 (g) were loaded with oligo DNA coding a partial antisense sequence of TAP1. Recognition by TEIPP-specific CTL was measured by IFNγ release. […]
(§2) In order to make an inventory of the deficiencies that can result in TEIPP expression, we assessed the effect of several targeted interventions in the MHC class I processing pathway. […]
(§3) Cytolytic activity of CTL was measured by chromium (^51Cr) release assay, as described before (16). CTL reactivity was also measured by IFNγ release. […] IFNγ content of supernatants was measured by sandwich ELISA technique (at OD 415) as described (47). […]

[2] = test system: RMA, 786 and RMA-S tumor cells; assay: IFNγ pre-treatment of tumor cells, recognition by CTL; format: cell-based, mouse
Description: (a) TEIPP-specific CTL were incubated with a panel of TAP-expressing syngeneic tumor cells (see Materials and Methods for descriptions of tumor cell lines). CTL response against TAP-deficient RMA-S in this experiment was 44 ng/ml. (b) Pre-treatment of TAP-expressing T-cell lymphoma (RMA) and B-cell lymphoma (786) cells with IFNγ reduced the reactivity of TEIPP-specific CTL, as measured after 6 h. […] Panels depict means of triplicate wells and one of three experiments is shown. (c-e) TAP-expressing RMA tumor cells were treated with the proteasome inhibitor lactacystin and used as targets for cytolysis by two independent TEIPP-specific CTL (c and d) or control RMA-specific CTL (e). […] One representative experiment of three is shown. […] (f-g) TAP-expressing colon carcinoma MC38 (f) and melanoma B16 (g) were loaded with oligo DNA coding a partial antisense sequence of TAP1. Recognition by TEIPP-specific CTL was measured by IFNγ release. […] (h) Tapasin−/− LPS B cell blasts are recognized by TEIPP-specific CTL in a CD8-dependent manner. Spleens of TAP1−/−, Tapasin−/− or wild type B6 mice were cultured with LPS and used as targets for TEIPP-specific CTL.
Thus far, only cells of hematopoietic origin had been tested against TEIPP-specific CTL. […] Likewise, TEIPP-specific CTL recognized immortalized mouse embryo fibroblasts from TAP1−/− origin (FIG. 2c). […] For instance, RMA, the TAP-expressing counterpart of RMA-S against which these T cells were raised, was also recognized by TEIPP-directed CTL, albeit to lower extent (FIG. 3a). Furthermore, the TEIPP-specific CTL recognized two independent TAP-expressing murine leukemia virus-induced B cell lymphomas (FIG. 3a, lines 771 and 786) and, of the tumor targets of non-hematopoietic origin, HPV type 16-transformed fibroblasts (FIG. 3a, line TC1). All these tumor cells expressed TAP, as illustrated by the fact that they serve as proper targets for control CTL that react against defined, TAP-dependent epitopes 15, 16. We therefore considered the possibility that partial deficiencies in MHC class I antigen processing may account for the recognition of several TAP-expressing murine tumor cells by TEIPP-specific CTL. Such partial defects are commonly found in human cancers 5. We examined this idea by treatment of RMA cells with IFNγ, which is known to enhance MHC class I antigen processing at multiple levels, including the transcription of TAP 17. […] In contrast, recognition by RMA-specific control CTL was increased (data not shown).
as §3

[3] = test system: TAP-deficient RMA-S lymphoma cells; assay: Peptide immunization and challenge with RMA-S tumor cells; format: in vivo; conditions: with T helper peptide and CpG oligonucleotides, B6 mice
Source text: Groups of B6 mice (n=10) were immunized with synthetic peptides comprising TEIPP Db peptide MCLRMTAVM or control Db peptide SSPVNSLRNVV51 combined with T helper peptide EPLTSLTPRCNTAWNRLKL29 and CpG oligonucleotides 28 and challenged with TAP-deficient RMA-S lymphoma cells. Mice were challenged at day 0 and immunized at days −14, 7 and 14. Immunization with irradiated RMA-S.B7 cells served as positive control.
We therefore immunized groups of mice with the newly identified Db-restricted TEIPP CTL epitope, or a control CTL epitope, in combination with a previously identified tumor-specific CD4+ T-helper epitope (29), and challenged the mice with a tumorigenic dose of RMA-S cells.
B6 mice were immunized with synthetic peptides by s.c. injections of 100 μg of peptide, 50 μg T-helper peptide EPLTSLTPRCNTAWNRLKL 29 and 40 μg Toll-Like Receptor 9 ligand CpG oligonucleotides 28 per mouse in a total volume of 200 μl PBS. Mice were challenged s.c. at the opposite flank with 8×10^5 RMA-S cells in PBS.

[4] = test system: Db-restricted TEIPP CTL; assay: Peptide recognition by Db-restricted TEIPP CTL (IFNγ release); format: cell-based, mouse; conditions: synthetic peptide in titrating amounts
Source text: Kb-restricted (a) and Db-restricted TEIPP-CTL (b) respond to human TAP-deficient T2 cells with stable expression of Kb or Db when exogenously loaded with synthetic peptide libraries. Libraries contained peptides with Kb- or Db-binding motifs, Kb lib: xxxxFxxI/L/M (complexity of approximately 108) and Db lib: xxxxNxxxI/L/M (complexity of approximately 109), where x is random for all amino acids. (c-d) Db molecules from RMA-S cells (1011) were immunoaffinity purified and acid eluted peptides were separated by reversed phase HPLC, applying an increasing acetonitril gradient (OD214 left axis, % acetonitril right axis) (c). HPLC fractions were loaded unto T2.Db cells and TEIPP-specific, Db-restricted CTL were applied to detect the eluted peptide-epitope (d). […] Of note, CTL recognition of HPLC fractions depended on the presence of the relevant class I molecule on target cells (not shown). (e) MCLRMTAVM peptide is processed and presented from the Trh4 gene. The Trh4 gene was cloned from RMA-S cells using gene-specific primers. Trh4 gene in the reversed orientation (Trh4r) served as control plasmid. […]
as §3

[5] = test system: TAP-expressing RMA tumor cells; assay: Proteasome inhibitor treatment of target cells, cytolysis by CTL (chromium release); format: cell-based, mouse; conditions: RMA cells treated with proteasome inhibitor
Description: as §1, §2, §3

In the case of “TAP1-specific anti-sense oligonucleotides: 'morpholino' oligonucleotides encoding the antisense sequence of mouse TAP1 (5′-AGAGTCTGGTCCTAGCCTGGGA-3′) (all phosphorodiamidate morpholino (PMO))”, the “recognition of treated cells by TEIPP-specific CTL” value [1] was “increased recognition by TEIPP-specific CTL”.

“IFNγ: interferon gamma used to pre-treat tumor cells” was tested, and the “recognition of pretreated cells by TEIPP-specific CTL” value ([2]; RMA cells) was “reduced recognition of these cells by TEIPP-specific CTL”, the “recognition of pretreated cells by RMA-specific control CTL” value ([2]; RMA cells, data not shown) was “increased” and the “MHC class I surface expression” value ([2]; RMA cells, not shown) was “increased three-fold”. The “recognition of pretreated cells by CTL” value ([2]; RMA-S cells, data not shown) was “did not result in an increased recognition”.

MCLRMTAVM was tested, and the “tumor protection after immunization” value [3] was “tumor protection in the majority of mice” and the “recognition by Db-restricted TEIPP CTL” value [4] was “efficiently recognized by the Db-restricted TEIPP CTL, at much lower concentration than the mimotope peptide”.

With “control peptide: control Db peptide SSPVNSLRNVV used for immunization” the “tumor protection after immunization” value [3] was “developed progressively growing tumors”.

`CC(=O)N[C@@H](CSC(=O)[C@]1([C@@H](O)C(C)C)NC(=O)[C@H](C)[C@@H]1O)C(=O)O` [lactacystin] was tested, and the “recognition of treated RMA cells by control CTL” value [5] was “decreased” and the “sensitivity of treated RMA cells to lysis by TEIPP-specific CTL” value [5] was “increased their sensitivity to lysis by these CTL”.
